# Test results from patent US20210205415A1 (Longevity Biotech, Inc., priority 2010, published 2021).
# No end group written: not given here.
# Assays:
# [1] = target: T1, VIPR1 (Homo sapiens, UniProt P32241); assay: cAMP Hunter cell line agonist mode assay (DiscoveRx HitHunter cAMP XS+); format: cell-based; conditions: for Mean RLU: readout cAMP, cell line VIPR1
# T1 sequence (P32241 31-457): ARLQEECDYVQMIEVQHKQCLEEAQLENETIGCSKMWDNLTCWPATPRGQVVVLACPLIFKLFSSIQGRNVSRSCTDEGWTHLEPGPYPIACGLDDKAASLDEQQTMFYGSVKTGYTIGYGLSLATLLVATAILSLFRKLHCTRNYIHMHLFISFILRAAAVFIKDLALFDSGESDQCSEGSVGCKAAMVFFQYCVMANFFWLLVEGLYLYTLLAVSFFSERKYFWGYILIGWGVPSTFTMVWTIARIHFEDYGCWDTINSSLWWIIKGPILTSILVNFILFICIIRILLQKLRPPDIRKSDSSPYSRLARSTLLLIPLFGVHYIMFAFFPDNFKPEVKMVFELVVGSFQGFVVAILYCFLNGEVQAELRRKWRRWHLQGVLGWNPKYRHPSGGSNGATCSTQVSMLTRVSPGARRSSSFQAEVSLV
# Procedure: (§1) Once it was established that the cells were healthy and growing normally, cells were passaged from flasks using cell dissociation reagent buffer and seeded into white walled clear bottom 384-well microplates for compound profiling. For profiling, cells were seeded at a density of 10,000 cells per well in a total volume of 20 μL and were allowed to adhere and recover overnight prior to compound addition. cAMP modulation was determined using the DiscoveRx HitHunter cAMP XS+ assay.
# (§2) For profiling compound in agonist mode, the cells were incubated in the presence of compound at 37° C. for 30 minutes. […] After appropriate compound incubation, assay signal was generated through incubation with DiscoverX lysis cocktail according to the manufacturers standard protocol. Dose curves were plotted using GraphPad Prism or Activity Base. Percentage activity is calculated using the following formula:
# (§3) % Activity=100% ×(mean RLU of test sample−mean RLU of vehicle control)/(mean RLU of MAX control−mean RLU of vehicle control).
# [2] = target: T2, VIPR2 (Homo sapiens, UniProt P41587); assay: as above; format: cell-based; conditions: for Mean RLU: readout cAMP, cell line VIPR2
# T2 sequence (P41587 24-438): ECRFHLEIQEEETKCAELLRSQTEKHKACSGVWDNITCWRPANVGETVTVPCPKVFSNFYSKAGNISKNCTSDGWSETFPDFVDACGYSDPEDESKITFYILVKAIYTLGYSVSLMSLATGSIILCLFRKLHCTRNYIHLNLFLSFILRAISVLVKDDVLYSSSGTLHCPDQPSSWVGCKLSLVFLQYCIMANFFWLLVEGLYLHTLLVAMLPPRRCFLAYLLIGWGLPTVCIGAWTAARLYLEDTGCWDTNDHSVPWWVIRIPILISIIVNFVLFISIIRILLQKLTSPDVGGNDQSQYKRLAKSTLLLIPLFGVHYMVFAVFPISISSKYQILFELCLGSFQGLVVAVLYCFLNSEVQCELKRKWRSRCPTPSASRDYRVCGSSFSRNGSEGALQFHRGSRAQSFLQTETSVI
# Procedure: as §1, §2, §3
# [3] = target: mouse CRF2β (Mus musculus, UniProt Q60748); conditions: read-out: Kd for binding to mouse CRF2β; cited from earlier work
# mouse CRF2β, sequence (Q60748 1-431 isoform Q60748-2): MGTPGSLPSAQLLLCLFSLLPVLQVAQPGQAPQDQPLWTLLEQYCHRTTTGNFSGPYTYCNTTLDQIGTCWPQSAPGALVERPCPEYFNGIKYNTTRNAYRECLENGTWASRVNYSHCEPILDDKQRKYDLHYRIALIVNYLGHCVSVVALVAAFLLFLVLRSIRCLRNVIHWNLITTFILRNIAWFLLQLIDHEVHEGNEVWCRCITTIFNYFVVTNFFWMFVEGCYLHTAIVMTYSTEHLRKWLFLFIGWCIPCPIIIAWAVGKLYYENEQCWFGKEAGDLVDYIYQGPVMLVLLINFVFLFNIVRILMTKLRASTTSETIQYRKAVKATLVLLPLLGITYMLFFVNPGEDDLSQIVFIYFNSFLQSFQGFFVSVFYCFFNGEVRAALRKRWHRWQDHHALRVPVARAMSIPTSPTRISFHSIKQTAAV
# [4] = target: T3, rat CRF1 receptors (Rattus norvegicus, UniProt P35353); conditions: read-out: Kd for binding to rat CRF1 receptors; cited from earlier work
# T3 sequence (P35353 24-415): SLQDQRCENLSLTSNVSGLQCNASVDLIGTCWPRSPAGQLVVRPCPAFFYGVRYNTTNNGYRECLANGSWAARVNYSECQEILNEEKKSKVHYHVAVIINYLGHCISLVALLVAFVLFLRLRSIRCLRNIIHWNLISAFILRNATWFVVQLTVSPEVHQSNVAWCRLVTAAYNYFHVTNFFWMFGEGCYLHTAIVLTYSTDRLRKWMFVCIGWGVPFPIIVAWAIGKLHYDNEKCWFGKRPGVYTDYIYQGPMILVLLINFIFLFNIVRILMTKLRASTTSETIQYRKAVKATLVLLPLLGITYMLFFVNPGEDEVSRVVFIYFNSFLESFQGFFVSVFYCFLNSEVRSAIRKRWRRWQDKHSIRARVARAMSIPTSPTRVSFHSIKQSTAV
# [5] = target: T4, HEK-mCRF2β cells (Mus musculus, UniProt Q60748); conditions: cited from earlier work
# T4 construct: expressed in transfected cells; host or cells: HEK cells (value quoted from the literature)
# T4 sequence (Q60748 1-431 isoform Q60748-2): as the sequence (Q60748 1-431 isoform Q60748-2) above
# [6] = target: T5, CRF2α (Homo sapiens, UniProt Q13324); conditions: cited from earlier work
# T5 sequence (Q13324 1-411): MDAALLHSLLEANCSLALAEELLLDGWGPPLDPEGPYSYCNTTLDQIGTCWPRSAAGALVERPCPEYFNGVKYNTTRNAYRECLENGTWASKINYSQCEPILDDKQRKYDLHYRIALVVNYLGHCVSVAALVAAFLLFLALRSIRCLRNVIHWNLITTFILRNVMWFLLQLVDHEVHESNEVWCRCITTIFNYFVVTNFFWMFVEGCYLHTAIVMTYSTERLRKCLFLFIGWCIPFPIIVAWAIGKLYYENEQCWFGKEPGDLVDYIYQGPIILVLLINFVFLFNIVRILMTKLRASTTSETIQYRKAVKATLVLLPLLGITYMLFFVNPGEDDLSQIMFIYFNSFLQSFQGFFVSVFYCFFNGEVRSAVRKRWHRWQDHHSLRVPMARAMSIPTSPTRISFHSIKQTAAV
# [7] = test system: calcitonin (CT) receptor; conditions: cited from earlier work
# [8] = test system: calcitonin-gene related peptide (CGRP) and adrenomedullin receptors; conditions: cited from earlier work
# [9] = target: neurotensin receptors; conditions: rat brain receptors; read-out: IC50 for inhibition of {Trp11}-NT binding; cited from earlier work
# [10] = target: T6, Glucagon receptor (Rattus norvegicus, UniProt P30082); conditions: rat liver membranes; cited from earlier work
# T6 construct: from tissue; host or cells: rat liver membranes (value quoted from the literature)
# T6 sequence (P30082 27-485): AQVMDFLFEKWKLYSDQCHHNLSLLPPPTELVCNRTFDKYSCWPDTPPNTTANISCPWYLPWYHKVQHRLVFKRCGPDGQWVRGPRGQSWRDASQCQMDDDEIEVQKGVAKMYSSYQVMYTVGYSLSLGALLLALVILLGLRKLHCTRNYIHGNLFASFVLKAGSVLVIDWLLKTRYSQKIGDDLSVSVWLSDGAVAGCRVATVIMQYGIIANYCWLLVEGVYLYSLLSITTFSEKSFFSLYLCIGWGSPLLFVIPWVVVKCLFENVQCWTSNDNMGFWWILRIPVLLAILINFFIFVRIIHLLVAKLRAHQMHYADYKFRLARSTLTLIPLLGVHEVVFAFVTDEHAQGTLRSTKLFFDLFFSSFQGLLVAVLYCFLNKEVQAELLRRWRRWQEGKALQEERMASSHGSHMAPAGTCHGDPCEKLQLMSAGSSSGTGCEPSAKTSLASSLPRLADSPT
# [11] = humans; cited from earlier work
# [12] = target: T7, VPAC1 receptor (Homo sapiens, UniProt P32241); conditions: cited from earlier work
# T7 sequence (P32241 31-457): T1 sequence (P32241 31-457)
# [13] = target: T8, VPAC2 receptors (Homo sapiens, UniProt P41587); conditions: read-out: IC50 for VPAC2 receptor; cited from earlier work
# T8 sequence (P41587 24-438): T2 sequence (P41587 24-438)
molecule,measurement,setting,value
"CC[C@H](C)[C@H](NC(=O)[C@H]1CCC[C@@H]1NC(=O)[C@H](CC(N)=O)NC(=O)[C@H](CC(C)C)NC(=O)[C@H](Cc1ccc(O)cc1)NC(=O)[C@H]1CNC[C@@H]1NC(=O)[C@H](CCCCN)NC(=O)[C@@H](NC(=O)[C@H]1CCC[C@@H]1NC(=O)[C@H](CC(C)C)NC(=O)[C@H](CCC(N)=O)NC(=O)[C@H](CCCCN)NC(=O)[C@H]1CNC[C@@H]1NC(=O)[C@H](CC(C)C)NC(=O)[C@H](CCCNC(=N)N)NC(=O)[C@H]1CCC[C@@H]1NC(=O)[C@H](Cc1ccc(O)cc1)NC(=O)[C@H](CC(N)=O)NC(=O)[C@H](CC(=O)O)NC(=O)[C@@H](NC(=O)[C@H](Cc1ccccc1)NC(=O)[C@@H](NC(=O)[C@H](C)NC(=O)[C@H](CC(=O)O)NC(=O)[C@H](CO)NC(=O)[C@@H](N)Cc1c[nH]cn1)C(C)C)[C@@H](C)O)C(C)C)C(=O)N[C@H](CC(=O)NC(CC(N)=O)CC(N)=O)CC(C)C [Compound 8, HSDAVFTDNYXRLZKQLXVKZYLNXILN]",EC50 compared with wild-type VIP,[1]; FIG. 3 legend,higher than the EC50 of wild-type VIP protein
same,Emax,"[1]; FIG. 3 legend, read-out: activation of VIPR1 relative to maximum activation",~100%
same,Mean RLU,"[1]; [Compound] 1.00E−08 M, agonist mode",13750.0 RLU
same,Mean RLU,"[1]; [Compound] 1.00E−09 M, agonist mode",18600.0 RLU
same,Mean RLU,"[1]; [Compound] 1.00E−10 M, agonist mode",9060.0 RLU
same,Mean RLU,"[1]; [Compound] 1.00E−11 M, agonist mode",10500.0 RLU
same,Mean RLU,"[1]; [Compound] 1.00E−12 M, agonist mode",10340.0 RLU
same,Mean RLU,"[1]; [Compound] 5.00E−09 M, agonist mode",13250.0 RLU
same,Mean RLU,"[1]; [Compound] 5.00E−10 M, agonist mode",9520.0 RLU
same,activation of VIPR1,"[1]; agonist mode, FIG. 3",fully activate VIPR1
same,interaction with VIPR2,[2],does not interact substantially with VIPR2
same,activation of VIPR2,[2]; FIG. 3,not activate VIPR2
same,Mean RLU,[2]; [Compound] 1.00E−07 M,5920.0 RLU
same,Mean RLU,[2]; [Compound] 1.00E−08 M,9580.0 RLU
same,Mean RLU,[2]; [Compound] 1.00E−09 M,5960.0 RLU
same,Mean RLU,[2]; [Compound] 1.00E−10 M,7560.0 RLU
same,Mean RLU,[2]; [Compound] 1.00E−11 M,9250.0 RLU
same,Mean RLU,[2]; [Compound] 1.00E−12 M,8960.0 RLU
same,Mean RLU,[2]; [Compound] 5.00E−07 M,10200.0 RLU
same,Mean RLU,[2]; [Compound] 5.00E−08 M,9200.0 RLU
same,Mean RLU,[2]; [Compound] 5.00E−09 M,3560.0 RLU
same,Mean RLU,[2]; [Compound] 5.00E−10 M,9620.0 RLU
Antisauvagine-30,Kd,[3],14 nM
same,Kd,[4],1540 nM
same,"pA2, inhibition of sauvagine-stimulated cAMP accumulation",[5],accumulation in HEK-mCRF2β cells (pA2=849) Prevents stress-
Astressin,Ki,[6],15 nM
"Calcitoninreceptor-stimulating peptide-1 (SCNTATCMTHRLVGLLSRSGSMVRSNLLPTKMGFKVFG-NH2; ends and bridges not checked; UniProt Q862B1 81-118, looked up)","ED50, stimulation of cAMP formation",[7]; calcitonin (CT) receptor,02 nM
same,potency of cAMP formation relative to CT,[7]; greater than CT,350 fold
same,activity at CGRP and adrenomedullin receptors,[8],no activity at calcitonin-gene related peptide (CGRP) and adrenomedullin
"Neuromedin N (rat, mouse, porcine, canine) (KIPYIL; Neuromedin N; UniProt P20068 142-147, looked up)",IC50,[9],167 nM
des-His1-{Glu9}-Glucagon (1-29) amide,pA2 for inhibition of glucagon-induced adenylyl cyclase activation,[10],(Glucagon receptor antagonist (pA2=72 for inhibition of glucagon-induced
glucagon-like peptide-1 [GLP-1],plasma half-life,[11],2 min
"{Ala2,8,9,11,19,22,24,25,27,28}-VIP",IC50,[12],115 to 132 nM
same,IC50,[13],> 30000 nM
